According to the OligoGym collection:
Where “and” joins values, the source holds several entries; their conditions need not be identical. Identical values can stand only once. HELM strings list units from the 5' end as sugar, base in round brackets, then linkage (d deoxyribose, r ribose, m 2'-O-methyl, p phosphodiester). Methylation of C is not given here. [moe] = 2'-O-(2-methoxyethyl) (MOE); [cEt] = constrained ethyl (cEt); [sp] = phosphorothioate linkage

What follows are substances tested against HBV. Details: ASO, HepG2, 0.0092593 µM.
In the case of “RNA1{[moe](G)[sp].[moe](C)[sp].d(A)[sp].d(G)[sp].d(T)[sp].d(A)[sp].d(T)[sp].d(G)[sp].d(G)[sp].d(A)[sp].d(T)[sp].[moe](C)[sp].[moe](G)[sp].[moe](G)[sp].[moe](C)[sp].[moe](A)}$$$$V2.0”, the target mRNA inhibition is reported as 2%.

Same assay, conditions: ASO, HepG2, 0.0277778 µM
In the case of “RNA1{[moe](G)[sp].[moe](C)[sp].d(A)[sp].d(G)[sp].d(T)[sp].d(A)[sp].d(T)[sp].d(G)[sp].d(G)[sp].d(A)[sp].d(T)[sp].[moe](C)[sp].[moe](G)[sp].[moe](G)[sp].[moe](C)[sp].[moe](A)}$$$$V2.0”, the target mRNA inhibition is reported as 25%.

Same assay, conditions: ASO, HepG2, 0.07 µM
With “RNA1{[moe](G)[sp].[moe](A)[sp].[moe](A)[sp].[moe](C)[sp].[moe](T)[sp].d(G)[sp].d(G)[sp].d(A)[sp].d(G)[sp].d(C)[sp].d(C)[sp].d(A)[sp].d(C)[sp].d(C)[sp].[moe](A)[sp].[moe](G)[sp].[moe](C)}$$$$V2.0” the target mRNA inhibition was 41% and 50%. In the case of “RNA1{[moe](G)[sp].[moe](A)[sp].[moe](A)[sp].[moe](C)[sp].d(C)[sp].d(A)[sp].d(C)[sp].d(T)[sp].d(G)[sp].d(A)[sp].d(A)[sp].d(C)[sp].d(A)[sp].[moe](A)[sp].[moe](A)[sp].[moe](T)}$$$$V2.0”, the target mRNA inhibition is reported as 34% and 23%. “RNA1{[moe](G)[sp].[moe](A)[sp].[moe](A)[sp].[moe](C)[sp].d(T)[sp].d(G)[sp].d(G)[sp].d(A)[sp].d(G)[sp].d(C)[sp].d(C)[sp].d(A)[sp].d(C)[sp].[moe](C)[sp].[moe](A)[sp].[moe](G)[sp].[moe](C)}$$$$V2.0” was tested, and the target mRNA inhibition was 69% and 49%. For “RNA1{[moe](G)[sp].[moe](A)[sp].[moe](A)[sp].d(G)[sp].d(T)[sp].d(C)[sp].d(C)[sp].d(A)[sp].d(C)[sp].d(C)[sp].d(A)[sp].d(C)[sp].[moe](G)[sp].[moe](A)[sp].[moe](G)[sp].[moe](T)[sp].[moe](C)}$$$$V2.0”, the target mRNA inhibition was 33% and 23%. “RNA1{[moe](G)[sp].[moe](A)[sp].[moe](G)[sp].[moe](A)[sp].[moe](A)[sp].[moe](G)[sp].d(T)[sp].d(C)[sp].d(C)[sp].d(A)[sp].d(C)[sp].d(C)[sp].d(A)[sp].d(C)[sp].d(G)[sp].[moe](A)[sp].[moe](G)}$$$$V2.0” was tested, and the target mRNA inhibition was 27% and 23%. For “RNA1{[moe](G)[sp].[moe](A)[sp].[moe](G)[sp].[moe](A)[sp].d(A)[sp].d(G)[sp].d(T)[sp].d(C)[sp].d(C)[sp].d(A)[sp].d(C)[sp].d(C)[sp].d(A)[sp].[moe](C)[sp].[moe](G)[sp].[moe](A)[sp].[moe](G)}$$$$V2.0”, the target mRNA inhibition was 42% and 29%. “RNA1{[moe](G)[sp].[moe](A)[sp].[moe](G)[sp].[moe](G)[sp].[moe](C)[sp].d(A)[sp].d(T)[sp].d(A)[sp].d(G)[sp].d(C)[sp].d(A)[sp].d(G)[sp].d(C)[sp].d(A)[sp].[moe](G)[sp].[moe](G)}$$$$V2.0” was tested, and the target mRNA inhibition was 44% and 39%. For “RNA1{[moe](G)[sp].[moe](A)[sp].[moe](G)[sp].[moe](G)[sp].[moe](T)[sp].d(G)[sp].d(A)[sp].d(A)[sp].d(G)[sp].d(C)[sp].d(G)[sp].d(A)[sp].d(A)[sp].d(G)[sp].[moe](T)[sp].[moe](G)}$$$$V2.0”, the target mRNA inhibition was 46% and 39%. In the case of “RNA1{[moe](G)[sp].[moe](A)[sp].[moe](G)[sp].d(G)[sp].d(C)[sp].d(A)[sp].d(T)[sp].d(A)[sp].d(G)[sp].d(C)[sp].d(A)[sp].d(G)[sp].[moe](C)[sp].[moe](A)[sp].[moe](G)[sp].[moe](G)}$$$$V2.0”, the target mRNA inhibition is reported as 58% and 57%. In the case of “RNA1{[moe](G)[sp].[moe](A)[sp].[moe](G)[sp].d(G)[sp].d(T)[sp].d(G)[sp].d(A)[sp].d(A)[sp].d(G)[sp].d(C)[sp].d(G)[sp].d(A)[sp].[moe](A)[sp].[moe](G)[sp].[moe](T)[sp].[moe](G)[sp].[moe](C)}$$$$V2.0”, the target mRNA inhibition is reported as 81% and 71%. For “RNA1{[moe](G)[sp].[moe](A)[sp].[moe](G)[sp].d(T)[sp].d(T)[sp].d(C)[sp].d(C)[sp].d(G)[sp].d(C)[sp].d(A)[sp].d(G)[sp].d(T)[sp].[moe](A)[sp].[moe](T)[sp].[moe](G)[sp].[moe](G)}$$$$V2.0”, the target mRNA inhibition was 54% and 30%. With “RNA1{[moe](G)[sp].[moe](A)[sp].[moe](T)[sp].[moe](G)[sp].[moe](A)[sp].d(G)[sp].d(G)[sp].d(C)[sp].d(A)[sp].d(T)[sp].d(A)[sp].d(G)[sp].d(C)[sp].d(A)[sp].[moe](G)[sp].[moe](C)[sp].[moe](A)}$$$$V2.0” the target mRNA inhibition was 46% and 21%. “RNA1{[moe](G)[sp].[moe](C)[sp].[moe](A)[sp].[moe](C)[sp].[moe](T)[sp].[moe](A)[sp].d(G)[sp].d(T)[sp].d(A)[sp].d(A)[sp].d(A)[sp].d(C)[sp].d(T)[sp].d(G)[sp].d(A)[sp].[moe](G)[sp].[moe](C)}$$$$V2.0” was tested, and the target mRNA inhibition was 74% and 65%. “RNA1{[moe](G)[sp].[moe](C)[sp].[moe](A)[sp].[moe](C)[sp].[moe](T)[sp].d(A)[sp].d(G)[sp].d(T)[sp].d(A)[sp].d(A)[sp].d(A)[sp].d(C)[sp].d(T)[sp].d(G)[sp].[moe](A)[sp].[moe](G)[sp].[moe](C)}$$$$V2.0” was tested, and the target mRNA inhibition was 58% and 63%. For “RNA1{[moe](G)[sp].[moe](C)[sp].[moe](A)[sp].[moe](C)[sp].d(T)[sp].d(A)[sp].d(G)[sp].d(T)[sp].d(A)[sp].d(A)[sp].d(A)[sp].d(C)[sp].d(T)[sp].[moe](G)[sp].[moe](A)[sp].[moe](G)}$$$$V2.0”, the target mRNA inhibition was 52% and 53%. For “RNA1{[moe](G)[sp].[moe](C)[sp].[moe](A)[sp].[moe](T)[sp].[moe](A)[sp].d(G)[sp].d(C)[sp].d(A)[sp].d(G)[sp].d(C)[sp].d(A)[sp].d(G)[sp].d(G)[sp].d(A)[sp].[moe](T)[sp].[moe](G)}$$$$V2.0”, the target mRNA inhibition was 57% and 54%. “RNA1{[moe](G)[sp].[moe](C)[sp].[moe](A)[sp].d(G)[sp].d(A)[sp].d(G)[sp].d(G)[sp].d(T)[sp].d(G)[sp].d(A)[sp].d(A)[sp].d(G)[sp].d(C)[sp].[cEt](G)[sp].[cEt](A)[sp].[cEt](A)}$$$$V2.0” was tested, and the target mRNA inhibition was 71% and 50%. In the case of “RNA1{[moe](G)[sp].[moe](C)[sp].d(A)[sp].d(G)[sp].d(A)[sp].d(G)[sp].d(G)[sp].d(T)[sp].d(G)[sp].d(A)[sp].d(A)[sp].[moe](G)[sp].[moe](C)[sp].[moe](G)[sp].[moe](A)[sp].[moe](A)[sp].[moe](G)}$$$$V2.0”, the target mRNA inhibition is reported as 20% and 40%. In the case of “RNA1{[moe](G)[sp].[moe](C)[sp].d(A)[sp].d(G)[sp].d(A)[sp].d(G)[sp].d(G)[sp].d(T)[sp].d(G)[sp].d(A)[sp].d(A)[sp].[moe](G)[sp].[moe](C)[sp].[moe](G)[sp].[moe](A)[sp].[moe](A)}$$$$V2.0”, the target mRNA inhibition is reported as 58% and 57%. “RNA1{[moe](G)[sp].[moe](C)[sp].d(A)[sp].d(G)[sp].d(T)[sp].d(A)[sp].d(T)[sp].d(G)[sp].d(G)[sp].d(A)[sp].d(T)[sp].[moe](C)[sp].[moe](G)[sp].[moe](G)[sp].[moe](C)[sp].[moe](A)}$$$$V2.0” was tested, and the target mRNA inhibition was 76% and 73%. For “RNA1{[moe](G)[sp].[moe](G)[sp].[moe](A)[sp].[moe](G)[sp].[moe](T)[sp].d(T)[sp].d(C)[sp].d(C)[sp].d(G)[sp].d(C)[sp].d(A)[sp].d(G)[sp].d(T)[sp].d(A)[sp].[moe](T)[sp].[moe](G)}$$$$V2.0”, the target mRNA inhibition was 74% and 50%. “RNA1{[moe](G)[sp].[moe](G)[sp].[moe](C)[sp].[moe](A)[sp].[moe](T)[sp].d(A)[sp].d(G)[sp].d(C)[sp].d(A)[sp].d(G)[sp].d(C)[sp].d(A)[sp].d(G)[sp].d(G)[sp].[moe](A)[sp].[moe](T)[sp].[moe](G)}$$$$V2.0” gave a target mRNA inhibition of 0%.

Same assay, conditions: ASO, HepG2, 0.0833333 µM
Work on “RNA1{[moe](G)[sp].[moe](C)[sp].d(A)[sp].d(G)[sp].d(T)[sp].d(A)[sp].d(T)[sp].d(G)[sp].d(G)[sp].d(A)[sp].d(T)[sp].[moe](C)[sp].[moe](G)[sp].[moe](G)[sp].[moe](C)[sp].[moe](A)}$$$$V2.0” yielded a target mRNA inhibition of 44%.

Same assay, conditions: ASO, HepG2, 0.25 µM
Work on “RNA1{[moe](G)[sp].[moe](C)[sp].d(A)[sp].d(G)[sp].d(T)[sp].d(A)[sp].d(T)[sp].d(G)[sp].d(G)[sp].d(A)[sp].d(T)[sp].[moe](C)[sp].[moe](G)[sp].[moe](G)[sp].[moe](C)[sp].[moe](A)}$$$$V2.0” yielded a target mRNA inhibition of 77%.
